Assay results: publication PMC12566624, “A Second Opportunity for the Peptide-Based Analogues with γ-Lactam at the P1 Position: Human Cathepsin S Inhibition” (Pharmaceuticals, 2025)

Biological target: T1, human cathepsin S (hCatS) (Homo sapiens, UniProt P25774)
T1 construct: gene CTSS
Experiment: fluorogenic enzyme inhibition assay, Cbz-Val-Val-Arg-AMC substrate; Ki from IC50
Assay type: biochemical

T1 sequence (P25774 115-331): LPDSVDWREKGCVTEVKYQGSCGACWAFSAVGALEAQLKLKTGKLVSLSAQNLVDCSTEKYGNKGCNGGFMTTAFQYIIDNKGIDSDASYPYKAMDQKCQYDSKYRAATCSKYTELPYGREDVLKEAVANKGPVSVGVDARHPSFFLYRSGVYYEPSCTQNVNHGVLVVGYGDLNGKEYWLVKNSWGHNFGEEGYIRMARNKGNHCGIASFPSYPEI

| Ki [nM] | SMILES |
| --- | --- |
| 58.8 ± 3.6 | CCCC[C@H](NC(=O)OCc1ccccc1)C(=O)N[C@H](/C=C/C(C)=O)C[C@@H]1CCNC1=O [SPR38] |
| 45.1 ± 3.8 | CC(=O)/C=C/[C@H](C[C@@H]1CCNC1=O)NC(=O)[C@H](CC1CC1)NC(=O)OCc1ccccc1 [SPR39] |
| 10.7 ± 1.1 | CC(=O)/C=C/[C@H](C[C@@H]1CCNC1=O)NC(=O)[C@H](CC1CCCCC1)NC(=O)OCc1ccccc1 [SPR41] |
